The text below walks through data of US7393871B2, “Anionic and neutral complexes of ruthenium (II) with nitrogen oxide” (Siega S.R.L., priority 2003, dated 2008).

Where two headings read alike, the source gives them in different places.

Usually IC50 stands for the concentration at which inhibition is half-maximal.

For test [1], the system named is TS/A, a murine adenocarcinoma cell line. The test can be described thus: Cytotoxicity, cell viability (MTU test) on TS/A cells. Particulars: medium with 5% FCS. The class given is cell-based. Here is the method:
(§1) The cytotoxicity of the ruthenium complexes prepared in Example 4 and 7 was tested on two significative tumor cell lines: MCF-7, a human hormone dependent mammary carcinoma cell line and TS/A, a murine adenocarcinoma cell line. At day 0 4000 TS/A cells and 5000 MCF-7 cells were sown in 96-welled dishes In 200 μl of culture medium. The culture medium used was RPMI medium supplemented with 10% FCS for the TS/A line and a mixture 1:1 of DMEM and F12 medium supplemented with 10% FCS for MCF-7. At day 1 the culture medium was removed and substituted with an identical medium containing 5% FCS only (control) or 5% FCS and the test compound (complex of example 4 or example 7) at the following concentrations: 0.1 μM, 1 μM, 3 μM, 10 μM, 30 μM, 100 μM, 300 μM, 600 μM and 1000 μM.
(§2) After 24, 48 and 72 hours cell viability was evaluated with a MTU test.

Test [2] deals with MCF-7, a human hormone dependent mammary carcinoma cell line. The test can be described thus: Cytotoxicity, cell viability (MTU test) on MCF-7 cells. The class given is cell-based. As to conditions: medium with 5% FCS. As to the method: as §1, §2
[3] abbreviates: 24 hours exposure, read-out: IC50 TSA 24 hours.
Where [4] appears, read: 48 hours exposure, read-out: IC50 TSA 48 hours.
Where [5] appears, read: 72 hours exposure, read-out: IC50 TSA 72 hours.
Where [6] appears, read: 24 hours exposure, read-out: IC50 MCF-7 24 hours.
Setting [7] is: 48 hours exposure, read-out: IC50 MCF-7 48 hours.
The mark [8] stands for this setting: 72 hours exposure, read-out: IC50 MCF-7 72 hours.

With “[ImH][trans-Ru^IICl4(Me2SO—O)NO] [Complex of Ex. 4]”, the IC50 came out at 155 µM in test [1] (setting [3]); 20 µM in test [1] (setting [4]); 17 µM in test [1] (setting [5]); 764 µM in test [2] (setting [6]); 118 µM in test [2] (setting [7]); 26 µM in test [2] (setting [8]).

On to “[Im2H][trans-Ru^IICl4(Im)NO] [Complex of Ex. 7]”, for which the half-maximal inhibitory concentration (IC50) worked out at 141 µM in test [1] (setting [3]); 39 µM in test [1] (setting [4]); 33 µM in test [1] (setting [5]); 532 µM in test [2] (setting [6]); 143 µM in test [2] (setting [7]); 18 µM in test [2] (setting [8]).
